± gives the expanded uncertainty stated by the source.
Conditions: 500 kPa, Liquid, Concentric cylinders viscometry

NCCCO [3-amino-1-propanol]
Conditions	viscosity [mPa·s]
298.15 K	30.43 ± 0.33
303.15 K	23.87 ± 0.32
308.15 K	19.07 ± 0.31
313.15 K	15.27 ± 0.31
318.15 K	12.36 ± 0.31
323.15 K	10.22 ± 0.3
328.15 K	8.54 ± 0.3
333.15 K	7.12 ± 0.3
338.15 K	6.05 ± 0.3
343.15 K	4.84 ± 0.3
348.15 K	4.17 ± 0.3
353.15 K	3.63 ± 0.3
358.15 K	3.19 ± 0.3
363.15 K	2.73 ± 0.3
368.15 K	2.52 ± 0.3
373.15 K	2.25 ± 0.3
